Laboratory results taken from ChEMBL document CHEMBL1136373, “Conformationally restricted 3,4-diarylfuranones (2,3a,4,5-tetrahydronaphthofuranones) as selective cyclooxygenase-2 inhibitors” (Bioorg Med Chem Lett, 2003).

Assays:
[1] = molecular target: T1, Prostaglandin G/H synthase 2 (Homo sapiens, UniProt P35354); test: In vitro inhibitory activity against recombinant human Prostaglandin G/H synthase 2
T1 sequence (P35354 whole entry): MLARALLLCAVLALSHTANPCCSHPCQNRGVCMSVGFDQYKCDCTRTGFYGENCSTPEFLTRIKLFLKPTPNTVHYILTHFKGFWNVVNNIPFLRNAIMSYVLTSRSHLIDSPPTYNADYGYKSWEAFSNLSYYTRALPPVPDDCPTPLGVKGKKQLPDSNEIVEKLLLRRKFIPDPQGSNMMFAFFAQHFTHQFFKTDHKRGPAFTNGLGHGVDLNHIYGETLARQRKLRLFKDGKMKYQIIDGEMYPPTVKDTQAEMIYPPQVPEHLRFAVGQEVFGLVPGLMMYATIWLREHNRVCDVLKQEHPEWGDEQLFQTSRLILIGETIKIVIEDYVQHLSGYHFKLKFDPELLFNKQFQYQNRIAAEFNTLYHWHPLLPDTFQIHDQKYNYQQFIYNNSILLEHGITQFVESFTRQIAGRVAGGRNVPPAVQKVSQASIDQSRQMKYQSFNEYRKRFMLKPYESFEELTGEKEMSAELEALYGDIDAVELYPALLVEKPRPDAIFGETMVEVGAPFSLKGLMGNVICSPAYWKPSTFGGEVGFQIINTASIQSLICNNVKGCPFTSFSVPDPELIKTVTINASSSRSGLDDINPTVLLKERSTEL

[2] = molecular target: T2, Prostaglandin G/H synthase 1 (Homo sapiens, UniProt P23219); test: In vitro inhibitory activity against recombinant human Prostaglandin G/H synthase 1 at concentration of 100 uM
T2 sequence (P23219 whole entry): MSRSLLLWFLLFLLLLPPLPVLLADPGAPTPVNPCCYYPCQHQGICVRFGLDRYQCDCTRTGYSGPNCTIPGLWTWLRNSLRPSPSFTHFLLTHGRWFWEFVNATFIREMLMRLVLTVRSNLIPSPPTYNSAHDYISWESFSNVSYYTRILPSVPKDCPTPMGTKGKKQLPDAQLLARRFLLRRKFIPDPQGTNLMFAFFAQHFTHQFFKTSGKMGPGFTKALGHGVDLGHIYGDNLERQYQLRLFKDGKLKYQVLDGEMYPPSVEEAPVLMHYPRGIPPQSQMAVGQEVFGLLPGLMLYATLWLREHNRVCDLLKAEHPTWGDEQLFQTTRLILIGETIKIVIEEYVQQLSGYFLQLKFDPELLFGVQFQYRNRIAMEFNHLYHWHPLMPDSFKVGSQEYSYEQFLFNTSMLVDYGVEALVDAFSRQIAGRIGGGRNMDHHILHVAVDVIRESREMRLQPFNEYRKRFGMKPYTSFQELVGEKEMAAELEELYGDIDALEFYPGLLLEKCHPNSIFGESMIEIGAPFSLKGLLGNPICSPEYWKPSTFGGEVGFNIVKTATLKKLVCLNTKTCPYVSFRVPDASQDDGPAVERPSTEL

[3] = molecular target: T2, Prostaglandin G/H synthase 1; test: In vitro inhibitory activity against recombinant human Prostaglandin G/H synthase 1
[4] = molecular target: T2, Prostaglandin G/H synthase 1; test: Ratio of in vitro inhibitory activity against recombinant human COX-1 to that of recombinant human COX-2

Row | SMILES | IC50 [1] | inhibition [2] | IC50 [3] | Ratio [4]
1 | CS(=O)(=O)c1ccc(C2=C3c4ccccc4CCC3OC2=O)cc1 (stereo unspecified) | 562 nM | 100% | > 45000 nM | –
2 | CSc1ccc(C2=C3c4ccccc4CCC3(O)OC2=O)cc1 (stereo unspecified) | 850 nM | 80% | 16700 nM | –
3 | CSc1ccc(C2=C3c4cc(C)ccc4CCC3(O)OC2=O)cc1 (stereo unspecified) | 670 nM | 97% | 13200 nM | –
4 | CSc1ccc(C2=C3c4ccccc4CCC3OC2=O)cc1 (stereo unspecified) | 827 nM | 100% | 53 nM | –
5 | CSc1ccc(C2=C3c4cc(C)ccc4CCC3OC2=O)cc1 (stereo unspecified) | 971 nM | 100% | 61 nM | –
6 | CS(=O)(=O)c1ccc(C2=C3c4ccccc4CCC3(O)OC2=O)cc1 (stereo unspecified) | – | 57% | – | –
7 | C[S+]([O-])c1ccc(C2=C3c4ccccc4CCC3(O)OC2=O)cc1 (stereo unspecified) | – | 11% | – | –
8 | Cc1ccc2c(c1)C1=C(c3ccc(S(C)(=O)=O)cc3)C(=O)OC1CC2 (stereo unspecified) | 665 nM | 52% | > 30000 nM | > 45.1
